Assays:
Format in all cases: in vivo, C57BL/6J mice
apo A-I mRNA = experiment: Semiquantitative RT-PCR, liver tissue: apo A-I; conditions: HFD-fed mice
Method: (§1) Experimental Animals: the experiments are conducted under the guidelines of the Institutional Animal Care and Use Committee of Central Taiwan University of Science and Technology. As previously described, four-week-old male C57BL/6J mice (n=63) is purchased from the National Laboratory Animal Breeding and Research Center, Ministry of Science and Technology. After 1-week of acclimatization, mice are designed to initiate the study, and the study lasts for 12 weeks. […] The CON group and high-fat control (HF) group are given with vehicle only. The low-fat diet consisted of fat 10%, whereas the high-fat diet (HFD) consisted of fat 45% (of total energy, % kcal). The compositions of the experimental diets are shown as described. At the end of the study, food is derived from the animals (from 10 p.m. to 10 a.m.). On the next day, the mice are sacrificed, and blood and tissue are collected for analysis. Livers, skeletal muscles, and white adipose tissues (WATs) (including epididymal, mesenteric and retroperitoneal WAT) are excised and weighed, and then immediately stored in a freezer at −80° C. Heparin (30 units/mL) (Sigma) is added to blood samples. Plasma samples are collected by centrifugation at 1600 g for 15 min at 4° C. within 30 min, and plasma is obtained for insulin and leptin level analysis.
(§2) The experiment is performed as in a previously described protocol. Total RNA from the liver tissue is isolated with a Trizol reagent (Molecular Research Center, Inc., Cincinnati, Ohio, USA) according to the manufacturer's directions. Total RNA (1 μg) is reverse transcribed to cDNA with 5 μL of Moloney murine leukemia virus reverse transcriptase (Epicenter, Madison, Wis., USA) as a previously described protocol. […] The relative density of the band is evaluated using AlphaDigiDoc 1201 software (Alpha Innotech Co., San Leandro, Calif., USA). All of the measured PCR products are normalized to the amount of cDNA of GAPDH in each sample.

[1] = system: phospho-Akt (Ser 473)/total Akt; experiment: Western blotting of phospho-Akt (Ser 473)/total Akt; conditions: HFD-fed mice, vs HF mice
Method: as §1
Protein extractions and immunoblots for the determination of membrane GLUT4, phospho-AMPK (Thr172), and phospho-Akt (Ser 473) proteins are carried out on frozen skeletal muscle and liver tissue from mice, which follows a previous paper. […] The protein contents of membrane GLUT4, phospho-AMPK, phospho-Akt, total AMPK, and total Akt are detected by western blotting. Western blotting has been determined as described elsewhere. Subsequently, antibodies are detected using horseradish peroxidase linked to a goat anti-IgG rabbit secondary antibody and visualized using an ECL system. […] The density blotting is analyzed using Alpha Easy FC software (Alpha Innotech Corp., Randburg, South Africa). […]

PPARα mRNA = experiment: Semiquantitative RT-PCR, liver tissue: PPARα; conditions: HFD-fed mice
Method: as §1, §2

CC(C)[C@@H](C)C=C[C@@H](C)[C@H]1CC[C@H]2C3=CCC4C[C@@H](O)CC[C@]4(C)C3=CC[C@]12C (stereo partly drawn) [ergostatrien-3β-ol, ergosta-7,9(11),22-trien-3β-ol]
mRNA levels of apolipoprotein A-I (apo A-I) (apo A-I mRNA; 10 mg/kg/day): increased | mRNA levels of apolipoprotein A-I (apo A-I) (apo A-I mRNA; 20 mg/kg/day): increased | mRNA levels of apolipoprotein A-I (apo A-I) (apo A-I mRNA; 40 mg/kg/day): increased | levels of phospho-Akt/total Akt ([1]; 10 mg/kg/day): higher | levels of phospho-Akt/total Akt ([1]; 20 mg/kg/day): higher | levels of phospho-Akt/total Akt ([1]; 40 mg/kg/day): higher | mRNA level of PPARα (PPARα mRNA; 10 mg/kg/day): increase | mRNA level of PPARα (PPARα mRNA; 20 mg/kg/day): increase | mRNA level of PPARα (PPARα mRNA; 40 mg/kg/day): increase

Source: patent publication US9757393B2 (priority 2015, dated 2017)
